Consider 20 molecules from US5198462A, “Heterocyclic amine, derivatives, their production and use” (Takeda Chemical Industries, Ltd., priority 1990, dated 1993).

Each structure is given as a SMILES string.

The first test addresses T1, Acyl-CoA:cholesterol transferase (ACAT) (Rattus norvegicus, UniProt Q7TQM4).
T1 construct: prepared from the microsomal fraction of mucosal cells from the small intestines of 6-week old Sprague-Dawley rats; from tissue; host or cells: microsomal fraction of small-intestinal mucosal cells, Sprague-Dawley rats
T1 sequence (Q7TQM4 1-524): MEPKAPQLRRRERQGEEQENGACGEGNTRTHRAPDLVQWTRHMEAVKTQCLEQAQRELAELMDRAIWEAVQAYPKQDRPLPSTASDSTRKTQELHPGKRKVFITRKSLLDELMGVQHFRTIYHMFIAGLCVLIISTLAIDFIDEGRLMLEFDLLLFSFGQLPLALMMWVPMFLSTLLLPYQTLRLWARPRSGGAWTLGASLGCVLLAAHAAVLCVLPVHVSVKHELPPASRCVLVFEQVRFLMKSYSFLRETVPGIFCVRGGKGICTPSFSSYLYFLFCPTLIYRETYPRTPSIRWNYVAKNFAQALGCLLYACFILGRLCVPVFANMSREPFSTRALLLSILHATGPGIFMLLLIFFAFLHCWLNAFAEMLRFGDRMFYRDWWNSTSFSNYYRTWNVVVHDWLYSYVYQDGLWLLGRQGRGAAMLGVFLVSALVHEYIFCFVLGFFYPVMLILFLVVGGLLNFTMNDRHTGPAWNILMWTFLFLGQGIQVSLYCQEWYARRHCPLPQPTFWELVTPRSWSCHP
The experiment in a line: Acyl-CoA:cholesterol transferase (ACAT)-inhibiting action. In kind it is biochemical, Sprague-Dawley rats. As to conditions: 10^-6 M; microsomal fraction of mucosal cells from rat small intestines; labeled cholesterol ester formed from [1-14C]oleyl-CoA; read-out: ACAT inhibiting rate (%) 10^-6 M. On the procedure:
The enzyme specimen ACAT was prepared from the microsomal fraction of mucosal cells from the small intestines of 6-week old Sprague-Dawley rats fasted for 20 hours, in accordance with the method described by Heider, et al. on Journal of Lipid Research, Vol. 24, p. 1127 (1982).
The activity of ACAT was calculated by determining the amount of labeled cholesterol ester formed from [1-^14 C]oleyl-CoA and endogenous cholesterol.
In Table 1, the inhibition rate (%) of formation of labeled cholesterol ester by the addition of test compounds (representing the compounds obtained by the following Working Examples 1 to 31) in an amount of 10^-6 M is shown as the index of the action of inhibiting ACAT.
Consider `O=C(Nc1ccc(F)cc1F)Nc1oc(=O)c2ccccc2c1-c1ccccc1` [Example 12, N-(4-Phenylisocoumarin-3-yl)-N'-(2,4-difluorophenyl)urea], for which the inhibition at 1 µM worked out at 94.2%. Same read-out and setting: with `COc1ccccc1-c1c(NC(=O)Nc2cc(C)c(OC(C)=O)c(C)c2)oc(=O)c2ccccc12` [Example 14, N-[4-(2-Methoxyphenyl)isocoumarin-3-yl]-N'-(4-acetoxy-3,5-dimethylphenyl)urea] the figure was 99%; with `Cc1cc2c(-c3ccccc3C)c(NC(=O)Nc3ccc(F)cc3F)n(C)c(=O)c2cc1C` [Example 8, N-[1,2-Dihydro-4-(2-methylphenyl)-2,6,7-trimethyl-1-oxoisoquinolin-3-yl]-N'-(2,4-difluorophenyl)urea], 64.9%; with `Cn1c(NC(=O)Nc2ccc(F)cc2F)c(-c2cc(C(C)(C)C)c(O)c(C(C)(C)C)c2)c2ccccc2c1=O` [Example 23, N-[4-(3,5-Di-t-butyl-4-hydroxyphenyl)-1,2-dihydro-2-methyl-1-oxoisoquinolin-3-yl-]-N'-(2,4-difluorophenyl)urea], 54.3%.

Consider `Cc1ccc2c(=O)oc(NC(=O)Nc3ccc(F)cc3F)c(-c3ccc(F)cc3)c2c1` [Example 10, N-[4-(4-Fluorophenyl)-6-methylisocoumarin-3-yl]-N'-(2,4-difluorophenyl)urea], for which the inhibition at 1 µM stood at 98.5%.

For the molecule `O=C(Nc1ccc(F)cc1F)Nc1oc(=O)c2ccccc2c1-c1ccc(F)cc1` [Example 11, N-[4-(4-Fluorophenyl)isocoumarin-3-yl]-N'-(2,4-difluorophenyl)urea], the inhibition at 1 µM was 92.1%. In the case of `O=C(Nc1ccc(F)cc1F)Nc1oc(=O)c2cc(Cl)ccc2c1-c1ccccc1` [Example 9, N-(7-Chloro-4-phenylisocoumarin-3-yl)-N'-(2,4-difluorophenyl)urea], the inhibition at 1 µM amounted to 89.8%. Still for that read-out and setting: with `Cc1cc(NC(=O)NC2=C(c3ccccc3)c3ccccc3CS2)cc(C)c1O` [Example 29, N-(4-Hydroxy-3,5-dimethylphenyl)-N'-(4-phenyl-1H-2-benzothiopyran-3-yl)urea] the figure was 95.5%; with `CC(=O)Oc1c(C)cc(NC(=O)Nc2oc(=O)c3ccccc3c2-c2ccccc2)cc1C` [Example 18, N-(4-Isocoumarin-3-yl)-N'-(4-acetoxy-3,5-dimethylphenyl)urea], 83.2%; with `CC(=O)Oc1c(C)cc(NC(=O)Nc2oc(=O)c3ccc(Cl)cc3c2-c2ccccc2)cc1C` [Example 13, N-(6-Chloro-4-phenylisocoumarin-3-yl)-N'-(4-acetoxy-3,5-dimethylphenyl)urea], 95.8%. On the same count and under the same terms, with `COc1ccccc1C1=C(NC(=O)Nc2ccc(N(C)C)cc2)SCc2ccccc21` [Example 28, N-(4-Dimethylaminophenyl)-N'-[4-(2-methoxyphenyl)-1H-2-benzothiopyran-3-yl]urea] the figure was 92%; with `CC(C)(C)OC(=O)Nc1oc(=O)c2ccc(Cl)cc2c1-c1ccccc1` [Example 2, t-Butyl N-(6-chloro-4-phenylisocoumarin-3-yl) carbamate], 76.1%.

On to `CC(=O)Oc1c(C)cc(NC(=O)NC2=C(c3ccccc3)c3ccccc3CS2)cc1C` [Example 26, N-(4-acetoxy-3,5-dimethylphenyl)-N'-(4-phenyl-1H-2-benzothiopyran-3-yl)urea], for which the inhibition at 1 µM is 94.8%. Consider `COc1ccccc1-c1c(NC(=O)Nc2ccc(F)cc2F)oc(=O)c2ccccc12` [Example 15, N-[4-(2-Methoxyphenyl)isocoumarin-3-yl]-N'-(2,4difluorophenyl)urea], for which the inhibition at 1 µM was 99.4%.

For `O=C(Nc1ccc(F)cc1F)Nc1oc(=O)c2ccc(Cl)cc2c1-c1ccccc1` [Example 1, N-(6-Chloro-4-phenylisocoumarin-3-yl)-N'-(2,4-difluorophenyl)urea], the inhibition at 1 µM was 98%. The same measure, in the same setting: the figure for `O=C(Nc1ccc(F)cc1F)Nc1oc(=O)c2ccc(F)cc2c1-c1ccc(F)cc1` [Example 16, N-[6-Fluoro-4-(4-fluorophenyl)isocoumarin-3-yl]-N'-(2,4-difluorophenyl)urea] is 60.2%; for `CC(=O)Oc1c(C)cc(NC(=O)Nc2oc(=O)c3ccc(F)cc3c2-c2ccc(F)cc2)cc1C` [Example 17, N-[6-Fluoro-4-(4-fluorophenyl)isocoumarin-3-yl]-N'-(4-acetoxy-3,5-dimethylphenyl)urea] it is 65.7%. The same measure, in the same setting: with `COc1ccccc1C1=C(NC(=O)Nc2cc(C)c(OC(C)=O)c(C)c2)SCc2ccccc21` [Example 27, N-(4-Acetoxy-3,5-dimethylphenyl)-N'-[4-(2-methoxyphenyl)-1H-2-benzothiopyran-3-yl]urea] the figure was 99.3%; with `CCOC(=O)CNC(=O)Nc1oc(=O)c2ccccc2c1-c1ccccc1OC` [Example 20, N-[4-(2-Methoxyphenyl)isocoumarin-3-yl]-N'-ethoxycarbonyl-methylurea], 88.7%.

With `COc1ccccc1-c1c(NC(=O)NC2CCCCC2)oc(=O)c2ccccc12` [Example 19, N-[4-(2-Methoxyphenyl)isocoumarin-3-yl]-N'-cyclohexylurea], the inhibition at 1 µM is 97.7%.

Tested on in another test: not listed separately
The experiment in a line: Plasma cholesterol lowering activity in cholesterol fed rat. As to conditions: dose 0.13 mg/kg/day in diet, 4 days; 1% cholesterol diet; n=5; mean ± standard deviation; *p < 0.05 vs. control (control 191.0 ± 25.6). In kind it is in vivo, Sprague-Dawley rats. How it is done: 7-week old, male Sprague-Dawley rats were fed a 1% cholesterol diet (containing 0.5% cholic acid and 5% olive oil) for three days, and then the rats were grouped according to the plasma cholesterol level (n=5). They were fed with the diet as described above containing test compound for further 4 days. Blood was collected from the rats during 8:30-10:00 am at the fed state, and the plasma cholesterol level was measured enzymatically. The amount of test compound consumed by rats was calculated on the basis of the amount of the diet consumed by the rats.
Regarding `COc1ccccc1-c1c(NC(=O)Nc2ccc(F)cc2F)oc(=O)c2ccccc12` [Example 15, N-[4-(2-Methoxyphenyl)isocoumarin-3-yl]-N'-(2,4difluorophenyl)urea], the “Cholesterol in Serum” value was found to be 125.2 ± 22.6 mg/dL.

Still in this test, the particulars now being: dose 0.14 mg/kg/day in diet, 4 days; 1% cholesterol diet; n=5; mean ± standard deviation; *p < 0.05 vs. control (control 191.0 ± 25.6).
Consider `COc1ccccc1-c1c(NC(=O)Nc2cc(C)c(OC(C)=O)c(C)c2)oc(=O)c2ccccc12` [Example 14, N-[4-(2-Methoxyphenyl)isocoumarin-3-yl]-N'-(4-acetoxy-3,5-dimethylphenyl)urea], for which the “Cholesterol in Serum” value was determined as 103.4 ± 23.7 mg/dL.
